The test system of one experiment is splenic immune cells. The experiment in a line: Cre circRNA LNP transfection of splenic immune cells in Ai9 Cre reporter mice (tdTomato). Format: in vivo. To be noted: 0.5 mg/kg Cre RNA LNPs i.v., 48 hours. On the procedure:
Circular RNAs encoding Cre recombinase (Cre) are encapsulated into lipid nanoparticles as previously described. Female, 6-8 week old B6.Cg-Gt(ROSA)26Sortm9(CAG-tdTomato)Hze/J (Ai9) mice were dosed with lipid nanoparticles at 0.5 mg/kg RNA intravenously. Fluorescent tdTomato protein was transcribed and translated in Ai9 mice upon Cre recombination, meaning circular RNAs have been delivered to and translated in tdTomato+ cells. After 48 hr, mice were euthanized and the spleens were harvested, processed into a single cell suspension, and stained with various fluorophore-conjugated antibodies for immunophenotyping via flow cytometry.
Ai9 mice (B6.Cg-Gt(ROSA)26Sortm9(CAG-tdTomato)Hze/J, female, 6-8 weeks, n=3 per group) were injected i.v. with 0.5 mg/kg Cre circRNA LNPs or PBS. Ai9 mice transcribe and translate the fluorescent reporter tdTomato upon Cre recombination; meaning cells which are tdTomato+ have successfully been transfected with Cre circRNA. […] Flow cytometry was performed using an Attune Nxt Flow Cytometer (Thermo).

A further experiment relates to primary human T cells. The experiment in a line: FLuc circRNA LNP transfection of activated primary human T cells with or without ApoE3. The note with it: 200 ng RNA/well, 24 hours, 4 donors. Format: cell-based. Here is the method: Primary human T cells from independent donors were stimulated with aCD3/aCD28 and allowed to proliferate for 6 days in the presence of human serum and IL-2. Then, 100,000 cells were plated in a 96 well plate and LNPs containing circRNA coding for Firefly Luciferase (FLuc) were added to the cells at 200 ng RNA/well with or without Apolipoprotein E3 (ApoE3). After 24-hour incubation, luminescence was quantified using the Bright-Glo Luciferase Assay System (Promega) according to manufacturer's instructions and background luminescence from cells not treated with LNPs was subtracted. […] (See Example 70 for LNP formulation procesure, e.g., for 10a-27 (5.7A), 10a-26 (5.7A), 10a-27 (4.5D), and 10a-26 (4.5D) LNPs.)

As to `CCCCCCCCC(CCCCCC)C(=O)OCCCCCCN(CCCCCCOC(=O)C(CCCCCC)CCCCCCCC)CCCn1ccnc1C` (centres unmarked) [Lipid 10a-27, ((3-(2-methyl-1H-imidazol-1-yl)propyl)azanediyl)bis(hexane-6,1-diyl) bis(2-hexyldecanoate)], the “tdTomato+ splenic immune cells” value in the experiment with splenic immune cells is recorded as “transfect significantly more splenic immune cells than those made with Lipid 10a-46”. Also, in the experiment on primary human T cells, the Firefly luminescence entry is on record as “generally produced higher luminescence than those containing Lipid 10a-26”.

(Values after patent US20250283073A1 (ORNA THERAPEUTICS, INC., priority 2021, published 2025).)
